The supplement of paper PMC10132981, “Formate overflow drives toxic folate trapping in MTHFD1 inhibited cancer cells” (Nature Metabolism, 2023)

Test system: SW620
Experiment: cell viability relative to vehicle (resazurin, 96 h); higher = more viable
Procedure: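 SW620 WT or MTHFD2-/- cells were treated for 96 h with a compound dilution series (log10 M) in RPMI with normal or dialysed FBS. Viability was read by resazurin and is given as % of vehicle.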

CN(Cc1cnc2nc(N)nc(N)c2n1)c1ccc(C(=O)N[C@@H](CCC(=O)O)C(=O)O)cc1 [methotrexate]
Settings	cell viability [%]
log10 compound concentration (M): -5, supplement / serum: Hypoxanthine + AICAr 10μM, base medium: RPMI + dialysed FBS	5.12
log10 compound concentration (M): -5, supplement / serum: Hypoxanthine + AICAr 30μM, base medium: RPMI + dialysed FBS	4.87
log10 compound concentration (M): -5, supplement / serum: Hypoxanthine + AICAr 50μM, base medium: RPMI + dialysed FBS	5.34
log10 compound concentration (M): -5, supplement / serum: Hypoxanthine + AICAr 100μM, base medium: RPMI + dialysed FBS	5.12
log10 compound concentration (M): -5, supplement / serum: Hypoxanthine, base medium: RPMI + dialysed FBS	4.67
log10 compound concentration (M): -5, supplement / serum: RPMI + Dialyzed FBS + 50μM Hypoxanthine, base medium: RPMI-1640	6.47
log10 compound concentration (M): -5, supplement / serum: RPMI + Dialyzed FBS, base medium: RPMI-1640	5.07
log10 compound concentration (M): -5, supplement / serum: RPMI + Normal FBS, base medium: RPMI-1640	19.1
log10 compound concentration (M): -5, supplement / serum: Vehicle, base medium: RPMI + dialysed FBS	4.01
log10 compound concentration (M): -5.47712, supplement / serum: Hypoxanthine + AICAr 10μM, base medium: RPMI + dialysed FBS	5.68
log10 compound concentration (M): -5.47712, supplement / serum: Hypoxanthine + AICAr 30μM, base medium: RPMI + dialysed FBS	4.86
log10 compound concentration (M): -5.47712, supplement / serum: Hypoxanthine + AICAr 50μM, base medium: RPMI + dialysed FBS	6.17
log10 compound concentration (M): -5.47712, supplement / serum: Hypoxanthine + AICAr 100μM, base medium: RPMI + dialysed FBS	5.44
log10 compound concentration (M): -5.47712, supplement / serum: Hypoxanthine, base medium: RPMI + dialysed FBS	5.19
log10 compound concentration (M): -5.47712, supplement / serum: RPMI + Dialyzed FBS + 50μM Hypoxanthine, base medium: RPMI-1640	7.16
log10 compound concentration (M): -5.47712, supplement / serum: RPMI + Dialyzed FBS, base medium: RPMI-1640	5.32
log10 compound concentration (M): -5.47712, supplement / serum: RPMI + Normal FBS, base medium: RPMI-1640	22.3
log10 compound concentration (M): -5.47712, supplement / serum: Vehicle, base medium: RPMI + dialysed FBS	3.96
log10 compound concentration (M): -5.95424, supplement / serum: Hypoxanthine + AICAr 10μM, base medium: RPMI + dialysed FBS	6.05
log10 compound concentration (M): -5.95424, supplement / serum: Hypoxanthine + AICAr 30μM, base medium: RPMI + dialysed FBS	4.88
log10 compound concentration (M): -5.95424, supplement / serum: Hypoxanthine + AICAr 50μM, base medium: RPMI + dialysed FBS	6.61
log10 compound concentration (M): -5.95424, supplement / serum: Hypoxanthine + AICAr 100μM, base medium: RPMI + dialysed FBS	6.46
log10 compound concentration (M): -5.95424, supplement / serum: Hypoxanthine, base medium: RPMI + dialysed FBS	4.87
log10 compound concentration (M): -5.95424, supplement / serum: RPMI + Dialyzed FBS + 50μM Hypoxanthine, base medium: RPMI-1640	7.47
log10 compound concentration (M): -5.95424, supplement / serum: RPMI + Dialyzed FBS, base medium: RPMI-1640	5.35
log10 compound concentration (M): -5.95424, supplement / serum: RPMI + Normal FBS, base medium: RPMI-1640	14.7
log10 compound concentration (M): -5.95424, supplement / serum: Vehicle, base medium: RPMI + dialysed FBS	4.17
log10 compound concentration (M): -6.43136, supplement / serum: Hypoxanthine + AICAr 10μM, base medium: RPMI + dialysed FBS	6.29
log10 compound concentration (M): -6.43136, supplement / serum: Hypoxanthine + AICAr 30μM, base medium: RPMI + dialysed FBS	5.47
log10 compound concentration (M): -6.43136, supplement / serum: Hypoxanthine + AICAr 50μM, base medium: RPMI + dialysed FBS	7.05
log10 compound concentration (M): -6.43136, supplement / serum: Hypoxanthine + AICAr 100μM, base medium: RPMI + dialysed FBS	6.81
log10 compound concentration (M): -6.43136, supplement / serum: Hypoxanthine, base medium: RPMI + dialysed FBS	5.56
log10 compound concentration (M): -6.43136, supplement / serum: RPMI + Dialyzed FBS + 50μM Hypoxanthine, base medium: RPMI-1640	7.77
log10 compound concentration (M): -6.43136, supplement / serum: RPMI + Dialyzed FBS, base medium: RPMI-1640	4.63
log10 compound concentration (M): -6.43136, supplement / serum: RPMI + Normal FBS, base medium: RPMI-1640	17
log10 compound concentration (M): -6.43136, supplement / serum: Vehicle, base medium: RPMI + dialysed FBS	4.16
log10 compound concentration (M): -6.90849, supplement / serum: Hypoxanthine + AICAr 10μM, base medium: RPMI + dialysed FBS	7.03
log10 compound concentration (M): -6.90849, supplement / serum: Hypoxanthine + AICAr 30μM, base medium: RPMI + dialysed FBS	5.61
log10 compound concentration (M): -6.90849, supplement / serum: Hypoxanthine + AICAr 50μM, base medium: RPMI + dialysed FBS	6.93
log10 compound concentration (M): -6.90849, supplement / serum: Hypoxanthine + AICAr 100μM, base medium: RPMI + dialysed FBS	6.51
log10 compound concentration (M): -6.90849, supplement / serum: Hypoxanthine, base medium: RPMI + dialysed FBS	5.78
log10 compound concentration (M): -6.90849, supplement / serum: RPMI + Dialyzed FBS + 50μM Hypoxanthine, base medium: RPMI-1640	8.66
log10 compound concentration (M): -6.90849, supplement / serum: RPMI + Dialyzed FBS, base medium: RPMI-1640	5.1
log10 compound concentration (M): -6.90849, supplement / serum: RPMI + Normal FBS, base medium: RPMI-1640	20.5
log10 compound concentration (M): -6.90849, supplement / serum: Vehicle, base medium: RPMI + dialysed FBS	4.6
log10 compound concentration (M): -7.38561, supplement / serum: Hypoxanthine + AICAr 10μM, base medium: RPMI + dialysed FBS	15.3
log10 compound concentration (M): -7.38561, supplement / serum: Hypoxanthine + AICAr 30μM, base medium: RPMI + dialysed FBS	7.88
log10 compound concentration (M): -7.38561, supplement / serum: Hypoxanthine + AICAr 50μM, base medium: RPMI + dialysed FBS	10.8
log10 compound concentration (M): -7.38561, supplement / serum: Hypoxanthine + AICAr 100μM, base medium: RPMI + dialysed FBS	9.102
log10 compound concentration (M): -7.38561, supplement / serum: Hypoxanthine, base medium: RPMI + dialysed FBS	14.7
log10 compound concentration (M): -7.38561, supplement / serum: RPMI + Dialyzed FBS + 50μM Hypoxanthine, base medium: RPMI-1640	24.7
log10 compound concentration (M): -7.38561, supplement / serum: RPMI + Dialyzed FBS, base medium: RPMI-1640	5.71
log10 compound concentration (M): -7.38561, supplement / serum: RPMI + Normal FBS, base medium: RPMI-1640	42.8
log10 compound concentration (M): -7.38561, supplement / serum: Vehicle, base medium: RPMI + dialysed FBS	4.77
log10 compound concentration (M): -7.86273, supplement / serum: Hypoxanthine + AICAr 10μM, base medium: RPMI + dialysed FBS	103
log10 compound concentration (M): -7.86273, supplement / serum: Hypoxanthine + AICAr 30μM, base medium: RPMI + dialysed FBS	75.9
log10 compound concentration (M): -7.86273, supplement / serum: Hypoxanthine + AICAr 50μM, base medium: RPMI + dialysed FBS	65.1
log10 compound concentration (M): -7.86273, supplement / serum: Hypoxanthine + AICAr 100μM, base medium: RPMI + dialysed FBS	39.1
log10 compound concentration (M): -7.86273, supplement / serum: Hypoxanthine, base medium: RPMI + dialysed FBS	92.6
log10 compound concentration (M): -7.86273, supplement / serum: RPMI + Dialyzed FBS + 50μM Hypoxanthine, base medium: RPMI-1640	85
log10 compound concentration (M): -7.86273, supplement / serum: RPMI + Dialyzed FBS, base medium: RPMI-1640	15.5
log10 compound concentration (M): -7.86273, supplement / serum: RPMI + Normal FBS, base medium: RPMI-1640	53.8
log10 compound concentration (M): -7.86273, supplement / serum: Vehicle, base medium: RPMI + dialysed FBS	10.7
log10 compound concentration (M): -8.33985, supplement / serum: Hypoxanthine + AICAr 10μM, base medium: RPMI + dialysed FBS	117
log10 compound concentration (M): -8.33985, supplement / serum: Hypoxanthine + AICAr 30μM, base medium: RPMI + dialysed FBS	93.6
log10 compound concentration (M): -8.33985, supplement / serum: Hypoxanthine + AICAr 50μM, base medium: RPMI + dialysed FBS	119.7
log10 compound concentration (M): -8.33985, supplement / serum: Hypoxanthine + AICAr 100μM, base medium: RPMI + dialysed FBS	92.9
